Results from patent US20190209548A1, “LINKED DIARYL COMPOUNDS WITH ANTICANCER PROPERTIES AND METHODS OF USING THE SAME” (University of Maryland, College Park, priority 2014, published 2019).

Assays:
7bp HP•AT = experiment: ITC titration with 7 bp hairpin containing A2T2; assay type: binding
Method: (§1) Isothermal titration calorimetry. ITC experiments were performed using a VP-ITC calorimeter (GE-Healthcare). A typical ITC experiment involved as many as addition of 28 (10 μL) injections of as high as 1 mM ligand solutions into ˜1.5 mL of a dilute DNA solution (10 μM). Corrected titration curves were achieved by subtracting the blank titration data from the ITC-data for the ligand-DNA titrations. Corrected ITC titrations were fit with a nonlinear regression algorithm again using the CHASM ITC data analysis program developed in our laboratory.
(§2) DNA stock solutions were prepared by reconstituting the lyophilized oligonucleotide into 20 mM Tris buffer with a salt concentration of 100 mM KCl and a pH of 7.2. Approximately 2 mL of the oligonucleotide was dialyzed (1000 Mw cutoff membrane) against three changes of buffer solution (1 L, 24 h each) at 4° C. The concentrations of stock DNA solutions were verified using UV-Vis. G-Quadruplex DNAs were annealed by quickly heating to sample to 100° C., holding at 100° C. for ten minutes then slowly cooling to 5° C. over three hours period. Molar extinction coefficient of the DNAs were determined using a nearest-neighbor method for single stranded DNA. The extinction coefficients at 260 nm for the WT 27-mer bcl-2, WT 24-mer c-myc, WT 22-mer human telomere hTel sequences are 267,200 M^−1cm^−1, 248,100 M^−1cm^−1, and 228,500 M^−1cm^−1 respectively. The extinction coefficient at 260 nm for the 7 base pair hairpin with A2T2 (7 bp HP⋅AT) and the 7 base pair hairpin without A2T2 (7 bp HP) are 165,200 M^−1cm^−1 and 159,200 M^−1cm^−1 respectively. Cell culture grade water purchased from Corning was used for all experiments.

[1] = test system: G-quadruplex DNAs (c-kit1, VEGF, bcl-2 2345 and TBA); experiment: UV-visible titration with G-quadruplex DNA; assay type: binding; details: ligand 10 μM, DNA 0-150 μM, 250 mM KCl, Tris-HCl pH 7.5
Method: UV titration studies of DNA with the triazene ligands, DMZ and Triazene-1. The molar extinction coefficients at 260 nm for 22-mer c-kit1, 18-mer VEGF, 23-mer bcl-2 2345, 15-mer TBA and 20-mer 8 bp AT are as follows 226,700 M^−1 cm^−1, 169,800 M^−1 cm^−1, 227,300 M^−1 cm^−1, 143,300 M^−1 cm^1 and 205,500 M^−1 cm^−1, respectively. The concentration of ligands used in this study was 10 μM and the DNA concentrations were 0, 0.25, 1.5, 3, 5, 6, 7, 8, 9, 10, 20, 30, 40, 50, 100, and 15 μM. The buffer contained 250 mM KCl, 50 mM Tris-HCl (at pH 7.5). The following quadruplex DNA were tested: c-kit1, VEGF, bcl-2 2345, and TBA. Duplex DNA (8 bp AT) was also tested. The sample was first heated up to 95° C. for 5 min without the ligand and then cooled down to room temperature in 15 min. The ligand was then added and the mixture was incubated at 4° C. for ˜12 h before recording the data. In case of Triazene-1 and Triazene-2, the sample mixture contained 1% DMSO.

22mer hTel K^+ = experiment: ITC titration with hTel G-quadruplex, K+ form; assay type: binding, human
Method: as §1
as §2, with “The extinction coefficient at 260 nm for the 7 base pair hairpin with A2T2 (7 bp HP⋅AT) and the 7 base pair hairpin without A2T2 (7 bp HP) are 165,200 M^−1cm^−1 and 159,200 M^−1cm^−1 respectively. Cell culture grade water purchased from Corning was used for all experiments.” left out

22mer hTel Na^+ = experiment: ITC titration with hTel G-quadruplex, Na+ form; assay type: binding, human; details: Na+ form of hTel22
Method: as §1
[…] Approximately 2 mL of the oligonucleotide was dialyzed (1000 Mw cutoff membrane) against three changes of buffer solution (1 L, 24 h each) at 4° C. The concentrations of stock DNA solutions were verified using UV-Vis. G-Quadruplex DNAs were annealed by quickly heating to sample to 100° C., holding at 100° C. for ten minutes then slowly cooling to 5° C. over three hours period. Molar extinction coefficient of the DNAs were determined using a nearest-neighbor method for single stranded DNA. The extinction coefficients at 260 nm for the WT 27-mer bcl-2, WT 24-mer c-myc, WT 22-mer human telomere hTel sequences are 267,200 M^−1cm^−1, 248,100 M^−1cm^−1, and 228,500 M^−1cm^−1 respectively. […]

8 bp AT = experiment: CD titration with AT-rich duplex DNA; assay type: binding; details: ligand 40 μM, 8 bp AT 0-50 μM
Method: CD experiments for binding of ligands with duplex DNA (AT-rich). CD titration experiments, monitoring in the wavelength region corresponding to the bound ligand, were performed with different concentrations of 8 bp AT (0-50 μM) added to a fixed concentration of either DMZ or Triazene-1 (40 μM).

24mer c-myc = experiment: ITC titration with c-myc G-quadruplex; assay type: binding
Method: as §1, §2

MCR5A = experiment: WST-1 IC50 determination, normal fibroblast; assay type: cell-based, human; details: normal fibroblast cell, 72 hours
Method: (§3) Cell lines and culturing. The following human cell lines were purchased from ATCC (ATCC, Manassas, Va.): prostate cancer cells (PC-3), triple negative breast cancer cells (MDA-MB-231), ovarian cancer cells (OVCAR-3), normal bone marrow (NBM) and normal fibroblast cells (MCR5A). MDA-MB-231 cells were grown at 37° C. with 5% CO2 atmosphere with DMEM (Life technologies, Carlsbad, Calif.) supplemented with heat-inactivated 10% (V/V) fetal bovine serum. OVCAR-3 and PC-3 cells were grown at 37° C. with 5% CO2 atmosphere with RPMI (Life technologies, Carlsbad, Calif.) supplemented with heat-inactivated 10% (V/V) fetal bovine serum. Cell lines were grown and maintained according to ATCC recommendations.
(§4) IC50 determination. Cell lines were seeded into 96-well plates the afternoon prior to treatment. Cell seeding number was determined by growing cells in log phase growth during drug treatment. Approximately 18 hours later, compounds were semi-serially diluted in dimethyl sulfoxide (DMSO) and then growth medium, and added to cells. Plates were incubated for 72 hours prior to addition of WST-1 (Promega, Madison Wis.). Plates were read after 4 additional hours of incubation at 37° C. using a Bio-Tek Synergy HT plate reader (Bio-Tek, Winooski, Vt.). Data was analyzed, graphed and IC50s generated using GraphPad Prism Software (Graphpad, La Jolla, Calif.).

NBM = experiment: WST-1 IC50 determination, normal bone marrow; assay type: cell-based, human; details: normal bone marrow, 72 hours, WST-1
Method: as §3, §4
IC50 determination: For the determination of IC50 for the azolamide class, the same protocol as described previously was followed.

[2] = ITC, 20 mM Tris, 100 mM KCl, pH 7.2

N=C(N)c1ccc(/N=N/Nc2ccc(C(=N)N)cc2)cc1 [DMZ, Diminazene aceturate, reference compound]
K2 (7bp HP•AT; 20 mM Tris, 100 mM KCl, pH 7.2): 45000 M⁻¹
shift of absorption spectrum upon DNA titration [1]: remarkable bathochromic shift (red shift) and a hypochromic effect
K3 (22mer hTel K^+): 55000 M⁻¹
ITC interaction heat (22mer hTel Na^+): calorimetrically silent
induced CD of ligand (8 bp AT): large positive induced CD
K1 (24mer c-myc; [2]): 7.6e+08 M⁻¹
K2 (24mer c-myc; [2]): 1.9e+07 M⁻¹
K3 (24mer c-myc; [2]): 280000 M⁻¹
Kd (24mer c-myc; from ITC data, as low as, read-out: dissociation constant): ~0.001 µM

N=C(N)c1ccc(NN=Nc2ccccc2)cc1 [DMZ1]
K1 (7bp HP•AT; 20 mM Tris, 100 mM KCl, pH 7.2): 29000 M⁻¹
reduction in binding affinity relative to DMZ (7bp HP•AT; compare Tables 2 and 3): ~30 times
shift of absorption spectrum upon DNA titration [1]: red shift
K1 (22mer hTel K^+): 2100 M⁻¹
ITC interaction heat (22mer hTel Na^+): calorimetrically silent
induced CD of ligand (8 bp AT): No induced CD
K1 (24mer c-myc; [2]): 36000 M⁻¹

N=C(N)c1ccc(N=NNc2cccc(C#Cc3ccc(F)cc3)c2)cc1 [DMZ9]
IC50 (MCR5A; read-out: IC50 ± SD, MCR5A): 8.3 ± 4 µM
IC50 (NBM; read-out: IC50 ± SD, NBM): 5.6 µM

N=C(N)c1ccc(/N=N/Nc2ccccc2C#Cc2ccc(F)cc2)cc1 [DMZ13]
IC50 ± SD, MCR5A (MCR5A): NE (NE means not effective. Cell viability was the same or greater than 75% of the DMSO control at 20 μM compound concentration.)
IC50 ± SD, NBM (NBM): NE (NE means not effective. Cell viability was the same or greater than 75% of the DMSO control at 20 μM compound concentration.)
